Numbered stars: 1 amine (or outer) side, 2 acyl side, 3 side chain; on linkers, the order of the positions; unused ones are H or OH. Square brackets hold non-standard residues; d marks the D form. Peptide text beside a SMILES is read from it. Phe(ψ(S)CH(OH)CH2N)Pro = O=C([C@@H]1CCCN1C[C@H](O)[C@H](Cc1ccccc1)N[*:1])[*:2]; Nle = CCCC[C@H](N)C(=O)O; Orn = NCCC[C@H](N)C(=O)O
Assays:
[1] = target: Human immunodeficiency virus type 1 protease (Human immunodeficiency virus 1, UniProt Q72874); test: Affinity for HIV Protease
[2] = target: T1, Fatty acid-binding protein, intestinal (Homo sapiens, UniProt P12104); test: Binding affinity against Fatty acid-binding protein
T1 sequence (P12104 whole entry): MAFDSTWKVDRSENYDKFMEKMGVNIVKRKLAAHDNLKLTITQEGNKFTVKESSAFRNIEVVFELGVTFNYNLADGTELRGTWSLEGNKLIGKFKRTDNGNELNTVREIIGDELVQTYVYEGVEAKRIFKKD

Thermolysin = target: T2, Thermolysin (Bacillus thermoproteolyticus, UniProt P00800); test: Binding affinity against Thermolysin
T2 sequence (P00800 whole entry): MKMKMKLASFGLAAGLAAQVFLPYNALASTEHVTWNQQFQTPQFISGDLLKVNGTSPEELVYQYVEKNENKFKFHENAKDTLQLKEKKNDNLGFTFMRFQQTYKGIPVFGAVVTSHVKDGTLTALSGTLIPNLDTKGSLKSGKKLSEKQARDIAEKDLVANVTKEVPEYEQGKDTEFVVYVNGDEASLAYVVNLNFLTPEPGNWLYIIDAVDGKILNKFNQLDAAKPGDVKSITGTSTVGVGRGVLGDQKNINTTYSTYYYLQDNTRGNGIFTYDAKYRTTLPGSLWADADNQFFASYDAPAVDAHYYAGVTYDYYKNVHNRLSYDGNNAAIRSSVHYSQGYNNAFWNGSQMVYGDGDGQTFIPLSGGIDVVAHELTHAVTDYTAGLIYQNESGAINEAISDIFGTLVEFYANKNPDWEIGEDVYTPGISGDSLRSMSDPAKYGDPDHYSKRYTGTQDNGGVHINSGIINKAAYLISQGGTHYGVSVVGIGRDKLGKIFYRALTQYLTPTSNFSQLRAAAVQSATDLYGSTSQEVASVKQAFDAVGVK

[3] = target: Purine nucleoside phosphorylase (Homo sapiens) (UniProt P00491); test: Binding affinity against Purine Nucleoside Phosphorylase
Prothrombin = Prothrombin (Homo sapiens, UniProt P00734); test: Binding affinity against thrombin
Serine protease 1 = Serine protease 1 (Homo sapiens, UniProt P07477); test: Binding affinity against trypsin
[4] = target: T3, Mast cell carboxypeptidase A (Homo sapiens, UniProt P15088); test: Binding affinity against Carboxypeptidase A
T3 sequence (P15088 whole entry): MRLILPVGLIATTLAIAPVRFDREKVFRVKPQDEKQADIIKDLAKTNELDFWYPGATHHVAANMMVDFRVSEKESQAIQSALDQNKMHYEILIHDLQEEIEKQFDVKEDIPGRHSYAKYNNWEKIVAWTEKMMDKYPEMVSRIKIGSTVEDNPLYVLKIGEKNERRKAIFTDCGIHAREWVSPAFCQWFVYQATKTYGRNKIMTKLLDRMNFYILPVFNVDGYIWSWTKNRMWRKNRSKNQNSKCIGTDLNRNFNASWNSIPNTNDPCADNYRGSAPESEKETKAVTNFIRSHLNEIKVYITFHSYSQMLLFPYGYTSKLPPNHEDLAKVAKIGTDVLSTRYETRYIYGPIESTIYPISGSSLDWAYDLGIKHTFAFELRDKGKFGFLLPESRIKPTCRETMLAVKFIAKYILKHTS

Purine nucleoside phosphorylase (Homo sapiens), sequence (P00491 whole entry, looked up): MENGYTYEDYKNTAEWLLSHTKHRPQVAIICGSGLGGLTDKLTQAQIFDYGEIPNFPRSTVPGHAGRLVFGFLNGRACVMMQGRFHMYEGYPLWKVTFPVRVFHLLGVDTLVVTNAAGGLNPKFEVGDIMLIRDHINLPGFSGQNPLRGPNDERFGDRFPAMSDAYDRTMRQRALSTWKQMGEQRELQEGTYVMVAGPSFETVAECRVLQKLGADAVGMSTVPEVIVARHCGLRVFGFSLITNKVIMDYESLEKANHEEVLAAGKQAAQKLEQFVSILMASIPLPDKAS
Serine protease 1, sequence (P07477 whole entry): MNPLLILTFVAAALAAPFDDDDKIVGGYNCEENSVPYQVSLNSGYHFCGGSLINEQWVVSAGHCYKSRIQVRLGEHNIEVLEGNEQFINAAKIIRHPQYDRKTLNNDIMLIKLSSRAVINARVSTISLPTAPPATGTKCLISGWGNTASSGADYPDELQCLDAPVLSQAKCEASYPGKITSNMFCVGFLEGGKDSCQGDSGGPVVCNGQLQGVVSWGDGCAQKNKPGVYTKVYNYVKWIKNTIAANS

Structure (SMILES)	Kd [1]	also measured
C=CO [E1203]	3.9 nM	–
O=C1N(Cc2ccc3ccccc3c2)[C@H](Cc2ccccc2)[C@H](O)[C@@H](O)[C@@H](Cc2ccccc2)N1Cc1ccc2ccccc2c1	0.302 nM	–
CCCCCCCCCCCCCCCC(=O)O	–	Kd [2]: 3.72 µM
O=[N+]([O-])Nc1ccccc1 [Nitroanilide]	–	Kd (Thermolysin): 427 nM
O=P(O)(O)OP(=O)(O)OP(=O)(O)OP(=O)(O)OP(=O)(O)OC[C@H]1O[C@@H](n2cnc3cncnc32)[C@H](O)[C@@H]1O	–	Kd [3]: 1100 nM
N=C(N)NCCC[C@H](NC(=O)[C@@H]1CCCN1C(=O)[C@@H](N)Cc1ccccc1)C(=O)O [5-amino(imino)methylamino-2-[1-[2-amino-3-phenyl-(2S)-propanoyl]-(5S)-dihydro-1H-5-pyrrolylcarboxamido]-(2S)-pentanoic acid]	–	Kd (Prothrombin): 575 nM
CC(C)[C@H](N)C(=O)N[C@@H](Cc1c[nH]c2ccccc12)C(=O)O [Val-Trp] (H-Val-Trp-OH)	–	Kd (Thermolysin): 1230 nM
CCCC[C@H](NC(=O)[C@H](CCCC)NC(=O)[C@@H](NC(=O)[C@@H](NC(C)=O)[C@@H](C)O)[C@@H](C)CC)C(=O)N[C@@H](CCCN)C(=O)N[C@@H](CCCN=C(N)N)C(N)=O (Ac-TI[Nle][Nle][Orn]R-NH2)	776 nM	–
CC(C)C[C@H](NP(=O)(O)O)C(N)=O [(P-Leu-NH2) (1-Carbamoyl-3-methyl-butyl)-phosphoramidic acid]	–	Kd (Thermolysin): 1290 nM
CC(C)CN(C[C@@H](O)[C@H](Cc1ccccc1)NC(=O)O[C@H]1CCOC1)S(=O)(=O)c1ccc(N)cc1 [VX-478]	0.589 nM	–
CC(C)C[C@H](NP(=O)(O)O[C@@H]1O[C@@H](C)[C@H](O)[C@@H](O)[C@H]1O)C(=O)N[C@@H](Cc1c[nH]c2ccccc12)C(=O)O [(S)-2-{(R)-2-[Hydroxy-((2R,3R,4R,5R,6S)-3,4,5-trihydroxy-6-methyl-tetrahydro-pyran-2-yloxy)-phosphorylamino]-4-methyl-pentanoylamino}-3-(1H-indol-3-yl)-propionic acid]	–	Kd (Thermolysin): 28 nM
NCCCCc1ccccc1 [4-Phenyl-butylamine]	–	Kd (Serine protease 1): 20 mM
O=P(O)(O)OP(=O)(O)OP(=O)(O)OP(=O)(O)OC[C@H]1O[C@@H](n2cnc3cncnc32)[C@H](O)[C@@H]1O	–	Kd [3]: 1410 nM
CC(C)C[C@H](NC(CCc1ccccc1)C(=O)O)C(=O)N[C@@H](Cc1c[nH]c2ccccc12)C(=O)O (stereo partly specified)	–	Kd (Thermolysin): 74 nM
CC(C)C[C@H](N)C(=O)NO [(S)-2-Amino-4-methyl-pentanoic acid hydroxyamide]	–	Kd (Thermolysin): 191000 nM
NCCCC[C@H](NC(=O)CN)C(=O)O [(S)-6-Amino-2-(2-amino-acetylamino)-hexanoic acid] (H-Gly-Lys-OH)	–	Kd [4]: 129 µM
O=P(O)(O)OP(=O)(O)OC[C@H]1O[C@@H](n2cnc3cncnc32)[C@H](O)[C@@H]1O	–	Kd [3]: 603 nM

Second part, led by results:

Kd [1]	Structure (SMILES)	also measured
0.234 nM	CC[C@H](C)[C@H](NC(=O)[C@@H]1CCCN1C[C@H](O)[C@H](Cc1ccccc1)NC(=O)[C@H](CC(N)=O)NC(=O)[C@H](CC(C)C)NC(=O)[C@H](CO)NC(C)=O)C(=O)N[C@H](C(=O)OC)C(C)C (Ac-SLN[Phe(ψ(S)CH(OH)CH2N)Pro]IV-OMe)	–
7.9 nM	CC1(C)S[C@H]([C@H](NC(=O)Cc2ccccc2)C(=O)NCc2ccccc2)N[C@H]1C(=O)N[C@@H](CO)Cc1ccccc1 [GR-126045]	–
0.0347 nM	CC(C)[C@H](NC(=O)N(C)Cc1ccccn1)C(=O)N[C@@H](Cc1ccccc1)C[C@@H](O)[C@H](Cc1ccccc1)NC(=O)[C@@H](NC(=O)N(C)Cc1ccccn1)C(C)C [(2S)-N-[(2S,3R,5S)-3-hydroxy-5-[(2S)-3-methyl-2-{[methyl(pyridin-2-ylmethyl)carbamoyl]amino}butanamido]-1,6-diphenylhexan-2-yl]-3-methyl-2-{[methyl(pyridin-2-ylmethyl)carbamoyl]amino}butanamide]	–
0.204 nM	CC1(C)SC(C(NC(=O)Cc2ccccc2)C(=O)NCc2ccccc2)NC1C(=O)NC(Cc1ccccc1)C(O)CC(=O)NCC1=NC2C=CC=CC2=N1 (stereo unspecified) [GR-137615]	–
0.0759 nM	CC(C)[C@H](NC(=O)N(C)Cc1ccccn1)C(=O)N[C@@H](Cc1ccccc1)[C@H](O)[C@@H](O)[C@H](Cc1ccccc1)NC(=O)[C@@H](NC(=O)N(C)Cc1ccccn1)C(C)C [JMC51852 Inhibitor PP]	–
0.977 nM	CC(C)[C@H](NC(=O)N(C)Cc1ccccn1)C(=O)N[C@@H](Cc1ccccc1)[C@@H](O)[C@H](O)[C@H](Cc1ccccc1)NC(=O)[C@@H](NC(=O)N(C)Cc1ccccn1)C(C)C [(2S)-N-[(2S,3R,4R,5S)-3,4-dihydroxy-5-[(2S)-3-methyl-2-{[methyl(pyridin-2-ylmethyl)carbamoyl]amino}butanamido]-1,6-diphenylhexan-2-yl]-3-methyl-2-{[methyl(pyridin-2-ylmethyl)carbamoyl]amino}butanamide]	–
0.0832 nM	CC(C)[C@H](NC(=O)N(C)Cc1ccccn1)C(=O)N[C@@H](Cc1ccccc1)[C@H](O)[C@H](O)[C@H](Cc1ccccc1)NC(=O)[C@@H](NC(=O)N(C)Cc1ccccn1)C(C)C [(2S)-N-[(2S,3R,4S,5S)-3,4-dihydroxy-5-[(2S)-3-methyl-2-{[methyl(pyridin-2-ylmethyl)carbamoyl]amino}butanamido]-1,6-diphenylhexan-2-yl]-3-methyl-2-{[methyl(pyridin-2-ylmethyl)carbamoyl]amino}butanamide]	–
0.708 nM	O=C(N[C@H]1c2ccccc2C[C@H]1O)[C@H](Cc1ccccc1)CC(O)C[C@@H](Cc1ccccc1)C(=O)N[C@H]1c2ccccc2C[C@H]1O [L-700417]	–
427 nM	COC(=O)[C@@H](NC(=O)[C@@H](NC(=O)[C@H](C)N1CCC([C@H](C)NC(=O)[C@H](C)N)=C[C@@H](Cc2ccccc2)C1)C(C)C)C(C)C [SB-203238]	–
